# Laboratory results: US20260374754A1, “N-((ISOQUINOLIN-6-YL)METHYL)-1H-PYRAZOLE-4-CARBOXAMIDE DERIVATIVES AS PLASMA KALLIKREIN INHIBITORS FOR THE TREATMENT OF HEREDITARY ANGIODEMA” (Takeda Pharmaceutical Company Limited, priority 2022, published 2026)
# Structures can show the parent of a compound that is named as a salt.
# Target: human activated kallikrein enzyme (Homo sapiens, UniProt P03952)
# Experiment: Inhibition of human activated plasma kallikrein, fluorogenic PFR-AMC substrate, 500 pM enzyme format
# Format: biochemical
# Conditions: 500 pM activated kallikrein; 300 μM PFR-AMC; 30 min preincubation; 10 min room temperature; pH 7.5; read-out: Primary Dose Response Assay: Average EC50
# In short: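 Using fluorogenic PFR-AMC at 300 μM, cleavage by 500 pM human activated kallikrein ran 10 min at room temperature, read at 460 nm emission (380 nm excitation). Enzyme and compounds were first preincubated 30 min in 20 mM Tris pH 7.5, 150 mM NaCl, 1 mM EDTA, 0.1% PEG-400, 0.1% Triton X-100.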
# Chain of human activated kallikrein enzyme (P03952 391-638 limits assumed): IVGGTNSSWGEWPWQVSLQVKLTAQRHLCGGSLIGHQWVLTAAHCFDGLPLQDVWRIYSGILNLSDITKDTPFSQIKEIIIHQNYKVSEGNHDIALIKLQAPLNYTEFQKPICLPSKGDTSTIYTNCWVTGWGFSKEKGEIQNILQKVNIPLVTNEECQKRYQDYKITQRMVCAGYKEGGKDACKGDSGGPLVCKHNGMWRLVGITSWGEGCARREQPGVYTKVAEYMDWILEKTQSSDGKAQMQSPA
# Chain of human activated kallikrein enzyme (P03952 20-390 partner limits assumed): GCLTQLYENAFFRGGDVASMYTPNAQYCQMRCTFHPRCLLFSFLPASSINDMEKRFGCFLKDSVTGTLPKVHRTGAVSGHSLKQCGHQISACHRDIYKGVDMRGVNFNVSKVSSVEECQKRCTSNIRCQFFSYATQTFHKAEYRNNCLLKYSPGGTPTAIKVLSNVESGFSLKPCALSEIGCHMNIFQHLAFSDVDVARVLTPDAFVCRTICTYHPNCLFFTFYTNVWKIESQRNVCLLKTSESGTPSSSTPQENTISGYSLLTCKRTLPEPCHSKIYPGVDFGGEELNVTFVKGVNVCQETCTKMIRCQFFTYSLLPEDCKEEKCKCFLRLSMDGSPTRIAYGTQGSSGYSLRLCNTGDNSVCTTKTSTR
row,Compound,EC50 [nM]
1,"Cc1cc2c(N)nccc2c(C)c1CNC(=O)c1cnn(Cc2ccc(N3CCCC3)nc2)c1C(F)(F)F [Example 193, N-((1-amino-5,7-dimethylisoquinolin-6-yl)methyl)-1-((6-(pyrrolidin-1-y1)pyridin-3-yl)methyl)-5-(trifluoromethyl)-1H-pyrazole-4-carboxamide]",100 to 1000
2,"Cc1cc2c(N)nccc2c(C)c1CNC(=O)c1cnn(Cc2cnccn2)c1 [Example 86, N-((1-amino-5,7-dimethylisoquinolin-6-yl)methyl)-1-(pyrazin-2-ylmethyl)-1H-pyrazole-4-carboxamide]",100 to 1000
3,"Cc1cc2c(N)nccc2c(C)c1CNc1nccc2nnn(Cc3cn4cc(C5CC5)ccc4n3)c12 [Example 253, 6-(((3-((6-cyclopropylimidazo[1,2-a]pyridin-2-yl)methyl)-3H-[1,2,3]triazolo[4,5-c]pyridin-4-yl)amino)methyl)-5,7-dimethylisoquinolin-1-amine]",100 to 1000
4,"CC(=O)Nc1nccc2c(C)c(CNC(=O)c3cnn(Cc4cn5cc(C)ccc5n4)c3)c(C)cc12 [Example 8, N-((1-acetamido-5,7-dimethylisoquinolin-6-yl)methyl)-1-((6-methylimidazo[1,2-a]pyridin-2-yl)methyl)-1H-pyrazole-4-carboxamide]",10 to 100
5,"Cc1cc2c(N)nccc2c(C)c1CNC(=O)c1ccnc(C(=O)c2cn3cc(C4CC4)ccc3n2)c1 [Example 189, N-((1-amino-5,7-dimethylisoquinolin-6-y1)methyl)-2-(6-cyclopropylimidazo[1,2-a]pyridine-2-carbonyl)isonicotinamide]",100 to 1000
6,"Cc1cc2c(N)nccc2c(C)c1CNc1cc(OCc2ccc3nccn3c2)cnn1 [Example 410, 6-(((5-(imidazo[1,2-a]pyridin-6-ylmethoxy)pyridazin-3-yl)amino)methyl)-5,7-dimethylisoquinolin-1-amine]",100 to 1000
7,"Cc1cc2c(N)nccc2c(C)c1CNC(=O)c1cnn(Cc2ccc(CC(=O)O)cc2)c1 [Example 131, 2-(4-((4-(((1-amino-5,7-dimethylisoquinolin-6-yl)methyl)carbamoyl)-1H-pyrazol-1-yl)methyl)phenyl)acetic acid]",100 to 1000
8,"Cc1cc2c(N)nccc2c(C)c1CNC(=O)c1cnn(Cc2ccncc2)c1 [Example 87, N-((1-amino-5,7-dimethylisoquinolin-6-yl)methyl)-1-(pyridin-4-ylmethyl)-1H-pyrazole-4-carboxamide]",100 to 1000
9,"Cc1cc2c(N)nccc2c(C)c1CNC(=O)c1cnn(Cc2ccc3ccc(Br)cc3n2)c1 [Example 156, N-((1-amino-5,7-dimethylisoquinolin-6-yl)methyl)-1-((7-bromoquinolin-2-yl)methyl)-1H-pyrazole-4-carboxamide]",1 to 10
10,"Cc1cc2c(N)nccc2c(C)c1CNC(=O)c1cnn(Cc2cccc(Cl)c2)c1 [Example 98, N-((1-amino-5,7-dimethylisoquinolin-6-yl)methyl)-1-(3-chlorobenzyl)-1H-pyrazole-4-carboxamide]",10 to 100
11,"Cc1cc2c(N)nccc2c(C)c1CNc1cc(OCc2ccc(Cn3cccn3)cc2)ccn1 [Example I-454, 6-(((4-((4-((1H-pyrazol-1-yl)methyl)benzyl)oxy)pyridin-2-yl)amino)methyl)-5,7-dimethylisoquinolin-1-amine]",1 to 10
12,Cc1cc2c(N)nccc2c(C)c1CNc1nccc2c1cnn2Cc1cn2cc(C3CC3)ccc2n1 [Example 266],100 to 1000
13,"Cc1cc2c(N)nccc2c(C)c1CNc1ccc2cnc(Cc3ccc4ncc(Cl)cc4c3)n2c1 [Example 520, 6-(((3-((3-chloroquinolin-6-yl)methyl)imidazo[1,5-a]pyridin-6-yl)amino)methyl)-5,7-dimethylisoquinolin-1-amine]",> 1000

# Further lines, results first:
row,EC50 [nM],Compound
1,1 to 10,"Cc1cc2c(N)nccc2c(C)c1CNC(=O)c1cnn(Cc2ccc(N(C)C(=O)N3CCCC3)cc2)c1 [Example 21, N-((1-amino-5,7-dimethylisoquinolin-6-yl)methyl)-1-(4-(N-methylpyrrolidine-1-carboxamido)benzyl)-1H-pyrazole-4-carboxamide]"
2,< 1,"Cc1cc(Cn2cc(C(=O)NCc3c(C)cc4c(N)nccc4c3C)cn2)cc(C)c1Cc1ccccn1 [Example 169, N-((1-amino-5,7-dimethylisoquinolin-6-yl)methyl)-1-(3,5-dimethyl-4-(pyridin-2-ylmethyl)benzyl)-1H-pyrazole-4-carboxamide]"
3,< 1,"Cc1cc2c(N)nccc2c(C)c1CNc1cc(NCc2ccc(OCc3nccs3)cc2)ncn1 [Example 356, N^4-((1-amino-5,7-dimethylisoquinolin-6-yl)methyl)-N^6-(4-(thiazol-2-ylmethoxy)benzyl)pyrimidine-4,6-diamine]"
4,1 to 10,"Cc1cc2c(N)nccc2c(C)c1CNc1cc(OCc2ccc(Cc3cccn(C)c3=O)cc2)ncn1 [Example 299, 3-(4-(((6-(((1-amino-5,7-dimethylisoquinolin-6-yl)methyl)amino)pyrimidin-4-yl)oxy)methyl)benzyl)-1-methylpyridin-2(1H)-one]"
5,1 to 10,"Cc1cc2c(N)nccc2c(C)c1CNc1cc(NCc2cc(C)c(OCc3nccs3)c(C)c2)ncn1 [Example 355, N^4-((1-amino-5,7-dimethylisoquinolin-6-yl)methyl)-N^6-(3,5-dimethyl-4-(thiazol-2-ylmethoxy)benzyl)pyrimidine-4,6-diamine, formic acid salt]"
6,< 1,"Cc1cc2c(N)nccc2c(C)c1CNC(=O)c1cnn(Cc2cn3c(Cl)c(C4CC4)ccc3n2)c1 [Example 148, N-((1-amino-5,7-dimethylisoquinolin-6-yl)methyl)-1-((5-chloro-6-cyclopropylimidazo[1,2-a]pyridin-2-yl)methyl)-1H-pyrazole-4-carboxamide]"
7,< 1,"Cc1cc2c(N)nccc2c(C)c1CNc1cc(OCc2ccc(Cn3ccccc3=O)cc2)cnn1 [Example 436, 1-(4-(((6-(((1-amino-5,7-dimethylisoquinolin-6-yl)methyl)amino)pyridazin-4-yl)oxy)methyl)benzyl)pyridin-2(1H)-one]"
8,< 1,"Cc1cc2c(N)nccc2c(C)c1CNC(=O)c1cnn(Cc2cn3ccc(C4CC4)cc3n2)c1 [Example 100, N-((1-amino-5,7-dimethylisoquinolin-6-yl)methyl)-1-((7-cyclopropylimidazo[1,2-a]pyridin-2-yl)methyl)-1H-pyrazole-4-carboxamide]"
9,< 1,"Cc1cc2c(N)nccc2c(C)c1CNc1cc(OCc2cn3cc(C4CC4)cnc3n2)nc(C(=O)O)n1 [Example 488, 4-(((1-amino-5,7-dimethylisoquinolin-6-yl)methyl)amino)-6-((6-cyclopropylimidazo[1,2-a]pyrimidin-2-yl)methoxy)pyrimidine-2-carboxylic acid]"
10,1 to 10,"Cc1cc2c(N)nccc2c(C)c1CNc1ccnc(OCc2ccc(Cn3cccn3)cc2)c1 [Example I-455, 6-(((2-((4-((1H-pyrazol-1-yl)methyl)benzyl)oxy)pyridin-4-yl)amino)methyl)-5,7-dimethylisoquinolin-1-amine]"
11,< 1,"Cc1cc2c(N)nccc2c(C)c1CNc1cc(OCc2ccc(Cc3cccn(C)c3=O)cc2)cnn1 [Example 440, 3-(4-(((6-(((1-amino-5,7-dimethylisoquinolin-6-yl)methyl)amino)pyridazin-4-yl)oxy)methyl)benzyl)-1-methylpyridin-2(1H)-one]"
